Test results published in US10902592B2, “Analysis of images of biological material” (Q-linea AB, priority 2016, dated 2021).

What was measured:
Type in all cases: cell-based
P.aureginosa = assay: Microscopy of P.aureginosa grown in presence of antibiotics (FIGS. 7e-g); details: for morphological change of the pathogen: P.aureginosa grown for three hours in presence of the antibiotic, microphotographs
Description: (§1) FIGS. 7a to 7j show the effect of antibiotics on the morphology of various pathogens. The microphotographs in a) to d) show E. coli grown for three hours either a) in absence of any antibiotics, b) and c) in presence of the antibiotic ceftazidime in different concentrations, and d) or in presence of the antibiotic meropenem. It is clear that the morphological change is not only dependent on the type of antibiotics but is also dose dependent. […] The strain of E. coli shown in these Figures is meropenem sensitive. The microphotographs in e) to g) show P.aureginosa grown for three hours either e) in absence of any antibiotics, f) in presence of the antibiotic ceftazidime or g) in presence of the antibiotic meropenem. […] The P.aureginosa strain shown is meropenem sensitive. The microphotographs of h) to j) show P. mirabilis grown for three hours either h) in absence of any antibiotics, i) in presence of the antibiotic ceftazidime or j) in presence of the antibiotic meropenem. […] The P. mirabilis strain shown is meropenem sensitive.

P. mirabilis = assay: Microscopy of P. mirabilis grown in presence of antibiotics (FIGS. 7h-j); details: for morphological change of the pathogen: P. mirabilis grown for three hours in presence of the antibiotic, microphotographs
Description: as §1

E. coli = assay: Microscopy of E. coli grown in presence of antibiotics (FIGS. 7a-d); details: for morphological change of the pathogen: E. coli grown for three hours in presence of the antibiotic, microphotographs
Description: as §1

## CC(C)(O/N=C(\C(=O)N[C@@H]1C(=O)N2C(C(=O)[O-])=C(C[n+]3ccccc3)CS[C@H]12)c1csc(N)n1)C(=O)O [ceftazidime]
P.aureginosa
  morphological change of the pathogen: “cluster threads” instead of individual threads
P. mirabilis
  morphological change of the pathogen: a combination of “swelling” and threads
E. coli
  morphological change of the pathogen: thread-like change in morphology

## C[C@@H](O)[C@H]1C(=O)N2C(C(=O)O)=C(S[C@@H]3CN[C@H](C(=O)N(C)C)C3)[C@H](C)[C@H]12 [meropenem]
P.aureginosa
  morphological change of the pathogen: the same morphological change occurs
P.aureginosa; P.aureginosa strain shown
  sensitivity of the strain shown to the antibiotic: sensitive
P. mirabilis
  morphological change of the pathogen: the same morphological change occurs
P. mirabilis; P. mirabilis strain shown
  sensitivity of the strain shown to the antibiotic: sensitive
E. coli
  morphological change of the pathogen: “swelling” of the pathogen
E. coli; E. coli strain shown in the Figures
  sensitivity of the strain shown to the antibiotic: sensitive
